According to patent US8080423B2, “Reagent containing protease reaction promoter and/or colorant stabilizer” (Asahi Kasei Pharma Corporation, priority 2004, dated 2011):
Where “and” joins values, the source holds several entries; their conditions need not be identical. Identical values can stand only once. Like-named read-outs stand apart in the source and are kept apart here.

Tests used:
[1] = tested on: Neutral protease (manufactured by Toyobo Co., Ltd.); experiment: Screening of protease reaction promoter (Example 1); assay type: biochemical; conditions: for protease reaction promoting effect (in words): judged from Table 1
Method: 1) R-1: Reagent for Protein Decomposition
2) R-2: Reagent for Glycated Amino Acid Detection
The following substances were independently used as a test sample. Note that concentrations described in parentheses each represent a final concentration of the substance in the reagent R1.
Absorbance before the addition of the reagent R-2 and 5 minutes after the addition was measured at 660 nm. […] The AH-AL shown in Table 1 is a difference obtained by subtracting absorbance AL which was obtained from the primary calibrator at level 2 (5.38%) from absorbance AH which was obtained from the primary calibrator at level 4 (9.88%). Here, if AH-AL is large, the sample is judged to have a protease reaction promoting effect. In particular, when AH-AL is 20 or more, the sample has an excellent promoting effect.

[2] = Screening of stabilizer for colorant, MBTH-TOOS (Example 13); assay type: physicochemical
[3] = Screening of stabilizer for colorant, DA64 (Example 13); assay type: physicochemical; conditions: DA-64, 750 nm, 37° C., additives at conc. (1%; IDA 1 mM; Zn, Al 0.1 mM; ferrocyanide 0.01 mM; sorbitol 5%; DMSO 10%)
Method: (§1) The following substances were used as test samples. Note that concentrations described in parentheses each represent a final concentration of the substance in the reagent R-1.
(§2) Tween-20 (1%), Brij35 (1%), Triton X-100 (1%), deoxycholic acid (1%), imino-diacetic acid (IDA; 1 mM), ZnSO4 (0.1 mM), AlCl3 (0.1 mM), potassium ferrocyanate (0.01 mM), sorbitol (5%), glucose (5%), sodium nitrite (2 mM), dimethylsulfoxide (DMSO; 10%) (those substances are manufactured by Wako Pure Chemical Industries, Inc.), 2-hydroxypropyl-β-cyclodextrin (2HP β CD; 0.5%, 2%, 5%) and methyl-β-cyclodextrin (M β CD; 0.5%, 2%, 5%) (those substances are manufactured by Nihon Shokuhin Kako Co., Ltd.).
(§3) 500 μl of the R-1 reagent and 500 μl of the R-2 which had been incubated to 37° C. were mixed. The mixture was incubated to 37° C. for 2 minutes, and absorbance thereof (A0) was measured. The mixture was added with 10 μl of 500 μM hydrogen peroxide or distilled water. The whole was incubated to 37° C., and absorbance exactly 5 minutes after the addition of hydrogen peroxide (A1) was measured, to calculate a change in absorbance ΔA (A1-A0). The absorbance was measured using a wavelength of 750 nm when DA64 was used as the colorant, a wavelength of 660 nm when DA67 was used as the colorant, and a wavelength of 570 nm when 4-AA-TOOS was used as the colorant.
(§4) Immediately after the preparation of the reagent, the reagent was preserved at 37° C. for 2 days and 9 days, and measurement of sensitivity of a blank which was distilled water and of hydrogen peroxide was performed.

[4] = Screening of stabilizer for colorant, DA67 (Example 13); assay type: physicochemical
Method: as §1, §2, §3, §4

[5] = test sample 1% in R-1, 660 nm, 20 or more = excellent promoting effect
[6] = test sample 2 mM in R-1, 660 nm
[7] = DA-67, 660 nm, 37° C., 0 days, additives at conc. (1%; IDA 1 mM; Zn, Al 0.1 mM; ferrocyanide 0.01 mM; sorbitol 5%; DMSO 10%)
[8] = DA-67, 660 nm, 37° C., 2 days, additives at conc. (1%; IDA 1 mM; Zn, Al 0.1 mM; ferrocyanide 0.01 mM; sorbitol 5%; DMSO 10%)
[9] = MBTH-TOOS, 570 nm, 37° C., 0 days, additives at conc. (1%; IDA 1 mM; Zn, Al 0.1 mM; ferrocyanide 0.01 mM; sorbitol 5%; DMSO 10%)
[10] = MBTH-TOOS, 570 nm, 37° C., 2 days, additives at conc. (1%; IDA 1 mM; Zn, Al 0.1 mM; ferrocyanide 0.01 mM; sorbitol 5%; DMSO 10%)
[11] = test sample 1 mM in R-1, 660 nm

Compound | AH (absorbance from primary calibrator at level 4 (9.88%)) ([1]; test sample 1% in R-1, 660 nm) | AL (absorbance from primary calibrator at level 2 (5.38%)) ([1]; test sample 1% in R-1, 660 nm) | AH − AL [1, 5] | protease reaction promoting effect (in words) [1] | also measured
CCCCCCCCCCCC[N+](C)(C)CC(=O)[O-] [AM-301, betaine lauryl dimethylaminoacetate] | 122.0 | 109.9 | 12.1 mAbs |  | 
Nc1ncnc2c1ncn2[C@@H]1O[C@H](COP(=O)(O)OP(=O)(O)OP(=O)(O)O)[C@@H](O)[C@H]1O [ATP, adenosine 5′-triphosphate, reference compound] |  |  |  |  | AH (absorbance from primary calibrator at level 4 (9.88%)) [1, 6]: 57.8; AH − AL [1, 6]: 3.6 mAbs; AL (absorbance from primary calibrator at level 2 (5.38%)) [1, 6]: 54.2
[Cl][Al]([Cl])[Cl] [AlCl3] |  |  |  |  | AH (absorbance from primary calibrator at level 4 (9.88%)) [1]: 60.7; AH − AL [1]: 5.6 mAbs; AL (absorbance from primary calibrator at level 2 (5.38%)) [1]: 55.1; blank (distilled water) change in absorbance [2]: 0.045 Abs and 0.055 Abs and 0.058 Abs; change in absorbance when 500 μM of hydrogen peroxide was measured [2]: 0.005 and 0.009
C[C@H](CCC(=O)NCCC[N+](C)(C)CCCS(=O)(=O)[O-])[C@H]1CC[C@H]2[C@@H]3[C@H](O)C[C@@H]4C[C@H](O)CC[C@]4(C)[C@H]3C[C@H](O)[C@]12C [CHAPS, 3-[(3-cholamidopropyl)dimethyl-ammonio]propanesulfonic acid, reference compound] | 111.4 | 104.5 | 6.9 mAbs |  | 
C[S+](C)[O-] [Dimethylsulfoxide, dimethylsulfoxide, reference compound] |  |  |  |  | AH (absorbance from primary calibrator at level 4 (9.88%)) ([1]; test sample 10% in R-1, 660 nm): 63.0; AH − AL ([1]; test sample 10% in R-1, 660 nm): 3.4 mAbs; AL (absorbance from primary calibrator at level 2 (5.38%)) ([1]; test sample 10% in R-1, 660 nm): 59.6; blank (distilled water) change in absorbance ([3]; 0 days): −0.005 Abs; blank (distilled water) change in absorbance ([3]; 2 days): 0.085 Abs; blank (distilled water) change in absorbance ([3]; 9 days): 0.233 Abs; blank (distilled water) change in absorbance [4, 7]: 0.088 Abs; blank (distilled water) change in absorbance [4, 8]: 2.103 Abs; blank (distilled water) change in absorbance [2, 9]: 0.149 Abs; blank (distilled water) change in absorbance [2, 10]: 1.134 Abs
CCCCCCCCCCCCCOCCOCCOCCOCCOCCOCCOCC(=O)[O-].[Na+] [ECTD-6NEX, sodium polyoxyethylene(6)tridecyl ether acetate] | 82.9 | 53.4 | 29.5 mAbs | effects were observed | 
Cc1cc2nc3c(=O)[nH]c(=O)nc-3n(C[C@H](O)[C@H](O)[C@H](O)COP(=O)(O)OP(=O)(O)OC[C@H]3O[C@@H](n4cnc5c(N)ncnc54)[C@H](O)[C@@H]3O)c2cc1C [FAD, flavin adenine dinucleotide, reference compound] |  |  |  |  | AH (absorbance from primary calibrator at level 4 (9.88%)) [1, 6]: 46.2; AH − AL [1, 6]: 0.7 mAbs; AL (absorbance from primary calibrator at level 2 (5.38%)) [1, 6]: 45.5
O=C(O)CNCC(=O)O [IDA, imino-diacetic acid, reference compound] |  |  |  |  | AH (absorbance from primary calibrator at level 4 (9.88%)) [1, 11]: 67.7; AH − AL [1, 11]: 5.5 mAbs; AL (absorbance from primary calibrator at level 2 (5.38%)) [1, 11]: 62.2; blank (distilled water) change in absorbance ([3]; 0 days): −0.010 Abs; blank (distilled water) change in absorbance ([3]; 2 days): 0.078 Abs; blank (distilled water) change in absorbance ([3]; 9 days): 0.210 Abs; blank (distilled water) change in absorbance [4, 7]: 0.089 Abs; blank (distilled water) change in absorbance [4, 8]: 2.131 Abs; blank (distilled water) change in absorbance [2, 9]: 0.151 Abs; blank (distilled water) change in absorbance [2, 10]: 1.213 Abs
CCCCCCCCCCCC(=O)N(C)CCS(=O)(=O)[O-].[Na+] [LMT, sodium N-lauroyl methyl taurinate] | 102.4 | 73.0 | 29.4 mAbs | effects were observed | 
CCCCCCCCCCCCOP(=O)(O)O [Phosten HLP, lauryl phosphate] | 134.6 | 121.9 | 12.7 mAbs |  | 
CCCCCCCCCCCCOCCOCCOS(=O)(=O)O.OCCN(CCO)CCO [SBL-2T-36, triethanolamine polyoxyethylene(2)lauryl ether sulfate] | 93.3 | 65.3 | 28.0 mAbs | effects were observed | 
CCCCCCCCCCCCOCCOCCOCCOCCOS(=O)(=O)O.OCCN(CCO)CCO [SBL-4T, triethanolamine polyoxyethylene(4)lauryl ether sulfate] | 103.2 | 75.2 | 28.0 mAbs | effects were observed | 
CCCCCCCCCCCCOS(=O)(=O)[O-].[Na+] [SLS, sodium lauryl sulfate, reference compound] | 53.3 | 48.7 | 4.6 mAbs |  | 
O=NO [Sodium nitrite, sodium nitrite, reference compound] |  |  |  |  | AH (absorbance from primary calibrator at level 4 (9.88%)) [1]: 107.9; AH − AL [1]: 26.2 mAbs; AL (absorbance from primary calibrator at level 2 (5.38%)) [1]: 81.7
O=[N+]([O-])c1ccc(-[n+]2nc(-c3ccc(S(=O)(=O)O)cc3S(=O)(=O)O)nn2-c2ccc(I)cc2)c([N+](=O)[O-])c1 [WST-3, 2-(4-iodophenyl)-3-(2,4-dinitrophenyl)-5-(2,4-disulfophenyl)-2H-tetrazolium, reference compound] |  |  |  |  | AH (absorbance from primary calibrator at level 4 (9.88%)) [1, 6]: 184.6; AH − AL [1, 6]: 23.7 mAbs; AL (absorbance from primary calibrator at level 2 (5.38%)) [1, 6]: 160.9
O=S(=O)([O-])[O-].[Zn+2] [ZnSO4, reference compound] |  |  |  |  | AH (absorbance from primary calibrator at level 4 (9.88%)) [1]: 145.7; AH − AL [1]: 1.6 mAbs; AL (absorbance from primary calibrator at level 2 (5.38%)) [1]: 144.1; blank (distilled water) change in absorbance [4]: 0.051 Abs and 0.062 Abs and 0.050 Abs; blank (distilled water) change in absorbance [2]: 0.050 Abs and 0.049 Abs and 0.055 Abs; change in absorbance when 500 μM of hydrogen peroxide was measured [2]: 0.003
monostearate polyoxyethylene(15)glyceryl [TMGS-15] | 92.0 | 82.2 | 9.8 mAbs |  | 
sodium cocoyl sarcosinate [Sarcosinate CN-30] | 106.2 | 76.6 | 29.6 mAbs | effects were observed | 
sodium polyoxyethylene(3)tridecyl ether acetate [ECTD-3NEX] | 95.8 | 68.3 | 27.5 mAbs | effects were observed | 
triethanolamine polyoxyethylene(3)alkyl ether sulfate [SBL-203-27] | 112.1 | 84.3 | 27.8 mAbs | effects were observed | 
